Experimental data published in US9718825B2, “N-(4-(azaindazol-6-yl)-phenyl)-sulfonamides and their use as pharmaceuticals” (priority 2013, dated 2017).

What was measured:
[1] = target: recombinant human SGK-1 enzyme (Homo sapiens, UniProt O00141); assay: Enzymatic activity assay: SGK-1 substrate peptide phosphorylation (Caliper lab-chip mobility shift); assay type: biochemical; conditions: peptide substrate 1 μM, ATP 10 μM, 60 min at 37° C., read-out: IC50 values for inhibition of SGK-1 enzymatic activity
recombinant human SGK-1 enzyme, sequence (O00141 whole entry, looked up): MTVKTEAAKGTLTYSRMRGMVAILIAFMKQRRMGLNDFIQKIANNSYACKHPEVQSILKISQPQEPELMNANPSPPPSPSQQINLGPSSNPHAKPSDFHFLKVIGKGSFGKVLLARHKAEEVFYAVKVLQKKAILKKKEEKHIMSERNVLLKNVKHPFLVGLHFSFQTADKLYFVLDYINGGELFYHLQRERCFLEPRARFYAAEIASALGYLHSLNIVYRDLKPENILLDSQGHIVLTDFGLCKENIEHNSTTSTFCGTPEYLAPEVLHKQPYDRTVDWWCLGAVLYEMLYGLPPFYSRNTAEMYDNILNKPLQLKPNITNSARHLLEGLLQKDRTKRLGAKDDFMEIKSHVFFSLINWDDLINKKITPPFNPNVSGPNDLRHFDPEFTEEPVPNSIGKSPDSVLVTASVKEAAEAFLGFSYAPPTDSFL
Procedure: In one of the cellular assays, the SGK-1 dependent phosphorylation of glycogen synthase kinase 3beta (GSK3beta) in U2OS cells was measured, in another one, a functional electrophysiological assay, the SGK-1 dependent activation of epithelial Na^+ channel (ENaC) currents in A6 cell monolayers, and in another one chondrocyte hypertrophic differentiation in mouse chondrogenic ATDC5 cells.
A) Enzymatic Activity Assay
For the determination of the compound dose response, a 10 mM DMSO stock solution was diluted and tested in a ten-point, three-fold dilution series run in duplicate beginning at 30 μM final concentration. Data were analyzed using a four-parameter curve fit with a fixed minimum and maximum experimentally defined as the average positive and negative controls on each plate.

[2] = test system: SGK-1 dependent phosphorylation of GSK3beta in U2OS cells; assay: SGK-1 dependent phosphorylation of GSK3beta in U2OS cells overexpressing recombinant SGK-1 and GSK3beta; assay type: cell-based, human; conditions: U2OS cells, 6 h incubation, ratio of phosphorylated GSK3beta to total GSK3beta; read-out: IC50 values for inhibition of SGK-1 dependent phosphorylation of GSK3beta in U2OS cells
Procedure: B) Determination of the Effect on SGK-1 Dependent Phosphorylation of GSK3beta in U2OS Cells
U2OS cells were cultured in 1:1 Dulbecco modified Eagle medium/Ham's F12 and 10% heat-inactivated fetal calf serum (FCS Gold) at 37° C., 7% CO2 and 95% relative humidity. […] Cell suspension mixed with BacMam viruses was seeded in 96 well pCLEAR plates (Greiner) at 3×10^4 cells per well in 250 μl medium. […] 1 μl of a solution of the test compound at 250×final concentration was added. Cells are incubated at 37° C., 7% CO2 and 95% relative humidity. […] After removing the fixation solution, cells were permeabilised by adding 200 μl PBT (0.2% Triton X-100 in PBS) per well for 5 min. After removing PBT, cells were blocked by adding 200 μl of blocking solution (1% bovine serum albumine in PBS) per well. Blocking solution was removed and 50 μl of primary antibody (rabbit anti-phospho-GSK-3beta (Ser9), and mouse anti-GSK-3beta) were added for 1 h. […] After washing the cells 3 times with PBS, 200 μl of PBS were added. Fluorescence signals were measured with the ImageXpress MICRO (Molecular Devices).

Row | SMILES | IC50 [1] | IC50 [2]
1 | Cc1ccc(C#N)c(S(=O)(=O)Nc2ccc(-c3nc(OCC(F)(F)F)c4c(N)n[nH]c4n3)cc2)c1 [Example 193] | 2 nM | 160 nM
2 | COc1ccc(Cl)c(S(=O)(=O)Nc2ccc(-c3nc(OCCC(N)=O)c4cn[nH]c4n3)cc2)c1 [Example 117] | 2.3 nM | 6800 nM
3 | Cc1nc(-c2ccc(NS(=O)(=O)c3ccc(F)cc3Cl)cc2)nc2[nH]nc(N)c12 [Example 164] | 40 nM | 600 nM
4 | COCCc1nc(-c2ccc(NS(=O)(=O)c3cc(OC)ccc3C#N)cc2)nc2[nH]nc(N)c12 [Example 521] | 65 nM | 480 nM
5 | CC(C)COc1nc(-c2ccc(NS(=O)(=O)c3ccccc3F)cc2)nc2[nH]nc(N)c12 [Example 331] | 290 nM | 240 nM
6 | O=S(=O)(Nc1ccc(-c2nc(Oc3cccnc3)c3cn[nH]c3n2)cc1)c1cc(Cl)ccc1Cl [Example 27] | < 1.2 nM | 1900 nM
7 | Nc1n[nH]c2cc(-c3ccc(NS(=O)(=O)c4cc(Cl)sc4Cl)cc3)ncc12 [Example 558] | 13 nM | 520 nM
8 | Nc1n[nH]c2nc(-c3ccc(NS(=O)(=O)c4cc(Cl)ccc4Cl)cc3)nc(OCC(F)(F)F)c12 [Example 195] | 5.4 nM | 210 nM
9 | Nc1n[nH]c2nc(-c3ccc(NS(=O)(=O)c4cc(Cl)ccc4Cl)cc3)ncc12 [Example 452] | 2 nM | 980 nM
10 | Cc1ccc(F)c(S(=O)(=O)Nc2ccc(-c3nc(N4CC(CO)C4)c4cn[nH]c4n3)cc2)c1 [Example 109] | 16 nM | 4600 nM
11 | COc1ccc(Cl)c(S(=O)(=O)Nc2ccc(-c3nc(OCC(C)C)c4c(N)n[nH]c4n3)cc2)c1 [Example 332] | 27 nM | 190 nM
12 | Cc1ccc(F)c(S(=O)(=O)Nc2ccc(-c3ncc4c(C)n[nH]c4n3)cc2)c1 [Example 95] | < 1.5 nM | 4600 nM
13 | Cc1ccc(F)c(S(=O)(=O)Nc2ccc(-c3nc(OCC4CNC(=O)C4)c4cn[nH]c4n3)cc2)c1 (stereo not shown) [Example 107] | 2.5 nM | 3700 nM
14 | COc1ccc(Cl)c(S(=O)(=O)Nc2ccc(-c3nc(OCC4CNCCO4)c4c(C)n[nH]c4n3)cc2)c1 (stereo not shown) [Example 290] | 3.3 nM | 15 nM
15 | COc1nc(-c2ccc(NS(=O)(=O)c3cc(Cl)ccc3C#N)cc2)nc2[nH]ncc12 [Example 138] | 44 nM | 3500 nM
16 | NCCCOc1nc(-c2ccc(NS(=O)(=O)c3cc(Cl)ccc3F)cc2)nc2[nH]ncc12 [Example 62] | < 1.2 nM | 450 nM
17 | COc1ccc(Cl)c(S(=O)(=O)Nc2ccc(-c3nc(OC4CCC(O)CC4)c4cn[nH]c4n3)cc2)c1 (stereo not shown) [Example 90] | 2.2 nM | 200 nM
18 | COc1ccc(Cl)c(S(=O)(=O)Nc2ccc(-c3nc(OC4CCCNC4)c4c(C)n[nH]c4n3)cc2)c1 (stereo not shown) [Example 319] | 4.5 nM | 31 nM
19 | Cc1n[nH]c2nc(-c3ccc(NS(=O)(=O)c4cc(F)ccc4F)cc3)nc(OC3CCNCC3F)c12 (stereo not shown) [Example 296] | 2.7 nM | 60 nM
20 | Cc1nc(-c2ccc(NS(=O)(=O)c3cc(Cl)ccc3F)cc2)nc2[nH]nc(N)c12 [Example 466] | < 1.5 nM | 260 nM
21 | Cc1ccc(C#N)c(S(=O)(=O)Nc2ccc(-c3nc(OCCCN)c4c(C)n[nH]c4n3)cc2)c1 [Example 213] | 6.4 nM | 190 nM
22 | NCCCOc1nc(-c2ccc(NS(=O)(=O)c3cc(Cl)ccc3Cl)cc2)nc2[nH]ncc12 [Example 63] | < 1.2 nM | 280 nM
23 | O=S(=O)(Nc1ccc(-c2nc(C3CC3)c3cn[nH]c3n2)cc1)c1cc(Cl)ccc1F [Example 141] | 6.5 nM | 150 nM
24 | O=S(=O)(Nc1ccc(-c2nc(SCCCO)c3cn[nH]c3n2)cc1)c1cc(Cl)ccc1Cl [Example 89] | < 1.5 nM | 100 nM
25 | O=S(=O)(Nc1ccc(-c2nc(OC3CCC(O)C3)c3cn[nH]c3n2)cc1)c1cc(Cl)ccc1F (stereo not shown) [Example 75] | 4.8 nM | 250 nM
26 | COc1nc(-c2ccc(NS(=O)(=O)c3cc(Cl)ccc3F)cc2)nc2[nH]ncc12 [Example 136] | 41 nM | 1700 nM
27 | O=S(=O)(Nc1ccc(-c2nc(OC3CCC(O)C3)c3cn[nH]c3n2)cc1)c1cc(Cl)ccc1Cl (stereo not shown) [Example 60] | 4 nM | 480 nM

Row | SMILES | IC50 [1] | IC50 [2]
28 | COc1ccc(F)c(S(=O)(=O)Nc2ccc(-c3nc(OC4CCC(O)CC4)c4cn[nH]c4n3)cc2)c1 (stereo not shown) [Example 133] | < 1.5 nM | 260 nM
29 | CC(C)COc1nc(-c2ccc(NS(=O)(=O)c3cc(Cl)ccc3F)cc2)nc2[nH]nc(N)c12 [Example 334] | 20 nM | 720 nM
30 | Cc1nc(-c2ccc(NS(=O)(=O)c3cc4c(cc3Br)OCCCO4)cc2)nc2[nH]nc(N)c12 [Example 477] | 4.8 nM | 4500 nM
31 | COc1ccc(Cl)c(S(=O)(=O)Nc2ccc(-c3nc(OCCCN)c4c(C)n[nH]c4n3)cc2)c1 [Example 212] | < 1.5 nM | 110 nM
32 | Cc1n[nH]c2nc(-c3ccc(NS(=O)(=O)c4cc(Cl)ccc4C#N)cc3)nc(OC3CCNCC3F)c12 (stereo not shown) [Example 299] | 3.3 nM | 410 nM
33 | COc1ccc(Cl)c(S(=O)(=O)Nc2ccc(-c3nc(N4CC(CO)C4)c4cn[nH]c4n3)cc2)c1 [Example 110] | 14 nM | 5100 nM
34 | Nc1n[nH]c2nc(-c3ccc(NS(=O)(=O)c4cc(F)c(F)cc4Cl)cc3)ncc12 [Example 514] | 250 nM | 270 nM
35 | Cc1ccc(F)c(S(=O)(=O)Nc2ccc(-c3nc(OCCCN)c4c(C)n[nH]c4n3)cc2)c1 [Example 207] | < 1.5 nM | 140 nM
36 | Cc1ccc(F)c(S(=O)(=O)Nc2ccc(-c3nc(OC4CCNCC4F)c4c(C)n[nH]c4n3)cc2)c1 (stereo not shown) [Example 298] | 2.3 nM | 43 nM
37 | O=S(=O)(Nc1ccc(-c2nc(N3CC(CO)C3)c3cn[nH]c3n2)cc1F)c1cc(Cl)ccc1F [Example 441] | 21 nM | 11000 nM
38 | O=S(=O)(Nc1ccc(-c2nc(N3CC(O)C3)c3cn[nH]c3n2)cc1F)c1cc(Cl)ccc1Cl [Example 437] | 100 nM | 1800 nM
39 | COc1ccc(F)c(S(=O)(=O)Nc2ccc(-c3nc(OCC(C)C)c4c(N)n[nH]c4n3)cc2)c1 [Example 326] | 9.1 nM | 160 nM
40 | Cc1ccc(C#N)c(S(=O)(=O)Nc2ccc(-c3nc(OCC4CNC(=O)C4)c4cn[nH]c4n3)cc2)c1 (stereo not shown) [Example 125] | 2 nM | 12000 nM
41 | Cc1ccc(F)c(S(=O)(=O)Nc2ccc(-c3nc(OCC4O[C@H](O)[C@H](O)[C@@H](O)[C@@H]4O)c4cn[nH]c4n3)cc2)c1 (stereo partly shown) [Example 123] | 9.9 nM | 30000 nM
42 | COc1ccc(C#N)c(S(=O)(=O)Nc2ccc(-c3nc(OC4CCC(O)CC4)c4cn[nH]c4n3)cc2)c1 (stereo not shown) [Example 134] | < 1.5 nM | 640 nM
43 | Cc1n[nH]c2nc(-c3ccc(NS(=O)(=O)c4ccccc4F)cc3)nc(OCCCN)c12 [Example 211] | 2.3 nM | 80 nM
44 | Cc1n[nH]c2nc(-c3ccc(NS(=O)(=O)c4cc(Cl)ccc4F)cc3)ncc12 [Example 10] | < 1.2 nM | 430 nM
45 | COc1ccc(F)c(S(=O)(=O)Nc2ccc(-c3nc(OC4CCCNC4)c4c(C)n[nH]c4n3)cc2)c1 (stereo not shown) [Example 294] | 3.5 nM | 270 nM
46 | COCCc1nc(-c2ccc(NS(=O)(=O)c3cc(C)ccc3F)cc2)nc2[nH]nc(N)c12 [Example 503] | 29 nM | 630 nM
47 | Cc1n[nH]c2nc(-c3ccc(NS(=O)(=O)c4cc(C#N)ccc4F)cc3)nc(OC3CCC(O)CC3)c12 (stereo not shown) [Example 128] | 2.7 nM | 3600 nM
48 | Cc1nc(-c2ccc(NS(=O)(=O)c3cc(F)cc(F)c3Cl)cc2)nc2[nH]nc(N)c12 [Example 479] | 16 nM | 280 nM
49 | O=S(=O)(Nc1ccc(-c2nc(C3CC3)c3cn[nH]c3n2)cc1F)c1cc(Cl)ccc1F [Example 443] | 94 nM | 320 nM
50 | Cc1nc(-c2ccc(NS(=O)(=O)C3=CSCC=C3Br)cc2)nc2[nH]nc(N)c12 [Example 173] | 330 nM | 600 nM
51 | NCCCOc1nc(-c2ccc(NS(=O)(=O)c3cccc(Cl)c3Cl)cc2)nc2[nH]ncc12 [Example 64] | 4.2 nM | 560 nM
52 | Cc1ccc(C#N)c(S(=O)(=O)Nc2ccc(-c3nc(C4CC4)c4cn[nH]c4n3)cc2)c1 [Example 145] | 4.1 nM | 350 nM
53 | O=S(=O)(Nc1ccc(-c2nc(OCCCCO)c3cn[nH]c3n2)cc1)c1cc(Cl)ccc1F [Example 35] | 3.2 nM | 5700 nM
